This is an account of results in publication PMC11594981 (International Journal of Molecular Sciences, 2024).

This data set deals with T1, CYP3A4 (Homo sapiens, UniProt P08684).
T1 construct: recombinant CYP3A4 (BACULOSOMES Plus reagent)
The data set can be described thus: fluorogenic substrate turnover by recombinant CYP3A4 (Vivid kit). Type of data set: biochemical.

T1 sequence (P08684 2-503): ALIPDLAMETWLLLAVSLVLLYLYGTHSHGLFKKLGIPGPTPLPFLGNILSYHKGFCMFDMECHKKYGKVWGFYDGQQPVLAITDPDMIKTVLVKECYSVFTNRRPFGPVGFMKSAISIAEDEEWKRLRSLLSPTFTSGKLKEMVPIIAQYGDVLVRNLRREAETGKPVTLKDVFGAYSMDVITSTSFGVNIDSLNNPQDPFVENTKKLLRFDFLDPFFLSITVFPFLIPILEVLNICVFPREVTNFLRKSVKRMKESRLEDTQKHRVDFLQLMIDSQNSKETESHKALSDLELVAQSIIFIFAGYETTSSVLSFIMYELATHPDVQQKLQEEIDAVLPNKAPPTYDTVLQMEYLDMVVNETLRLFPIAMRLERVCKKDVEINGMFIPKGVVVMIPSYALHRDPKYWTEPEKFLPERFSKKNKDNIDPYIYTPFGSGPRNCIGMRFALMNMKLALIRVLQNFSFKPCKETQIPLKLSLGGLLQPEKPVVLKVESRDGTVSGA

In the case of `N#Cc1cc2ccc(OCOCc3ccccc3)cc2oc1=O` [BOMCC, 7-benzyloxymethoxy-3-cyano-coumarin], the “fluorogenic substrate turnover by recombinant CYP3A4 (Vivid kit)” value is given as “Inhibition of BOMC transformation by CYP3A4 in the presence of ivermectin”.
